Ki data for 7 compounds are collected here from ChEMBL document CHEMBL2407012, “Structural and biological exploration of phe(3)-phe(4)-modified endomorphin-2 peptidomimetics” (ACS Med Chem Lett, 2013).

One assay addresses Mu-type opioid receptor (Homo sapiens, UniProt P35372). In words: Displacement of [3H]DAMGO from mu opioid receptor (unknown origin) expressed in CHO cells after 90 mins by liquid scintillation counting. It counts as cell-based. (In general: Loss of bound radioactivity is the signal in a displacement assay; it reports binding, not function.)
In assay [1] the target is Delta-type opioid receptor (Homo sapiens, UniProt P41143). In words: Displacement of [3H]DPDPE from delta opioid receptor (unknown origin) expressed in CHO cells after 90 mins by liquid scintillation counting. It counts as cell-based.
Delta-type opioid receptor, sequence (P41143 whole entry): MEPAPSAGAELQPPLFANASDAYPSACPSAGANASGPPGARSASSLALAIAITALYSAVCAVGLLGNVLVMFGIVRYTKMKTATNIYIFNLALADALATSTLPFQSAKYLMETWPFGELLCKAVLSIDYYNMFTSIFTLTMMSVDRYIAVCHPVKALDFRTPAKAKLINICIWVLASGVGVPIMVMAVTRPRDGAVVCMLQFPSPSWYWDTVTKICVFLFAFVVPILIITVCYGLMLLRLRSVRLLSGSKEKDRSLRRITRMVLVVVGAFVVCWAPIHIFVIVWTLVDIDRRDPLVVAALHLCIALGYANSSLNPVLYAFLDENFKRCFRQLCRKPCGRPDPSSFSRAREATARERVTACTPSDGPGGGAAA

One may read the Ki as the dissociation constant of the complex between target and ligand, obtained from inhibition or displacement.

Mu-type opioid receptor, sequence (P35372 whole entry): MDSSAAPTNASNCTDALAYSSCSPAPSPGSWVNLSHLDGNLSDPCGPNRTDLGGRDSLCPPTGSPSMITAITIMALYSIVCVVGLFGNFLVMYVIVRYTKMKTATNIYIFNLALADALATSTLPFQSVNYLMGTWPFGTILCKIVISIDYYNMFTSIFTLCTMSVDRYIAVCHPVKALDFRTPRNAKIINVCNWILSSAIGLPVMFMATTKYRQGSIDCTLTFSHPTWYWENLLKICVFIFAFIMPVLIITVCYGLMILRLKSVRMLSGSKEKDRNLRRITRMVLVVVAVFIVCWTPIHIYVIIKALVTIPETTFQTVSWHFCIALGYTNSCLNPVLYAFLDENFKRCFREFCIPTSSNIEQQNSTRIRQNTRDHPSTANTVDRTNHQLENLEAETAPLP

Take `NC(=O)[C@@H]1Cc2ccccc2CN(C(=O)C[C@H](Cc2ccccc2)NC(=O)[C@@H]2CCCN2C(=O)[C@@H](N)Cc2ccc(O)cc2)C1`: the Ki was 0.021 µM at Mu-type opioid receptor and 0.695 µM in assay [1].
Taken in the same sequence, the figures for `NC(=O)[C@H]1Cc2ccccc2CN(C(=O)C[C@H](Cc2ccccc2)NC(=O)[C@@H]2CCCN2C(=O)[C@@H](N)Cc2ccc(O)cc2)C1` were 0.014 µM and 0.187 µM.
As for `NC(=O)[C@@H](CNC(=O)C[C@H](Cc1ccccc1)NC(=O)[C@@H]1CCCN1C(=O)[C@@H](N)Cc1ccc(O)cc1)Cc1ccccc1`, the values for the Ki (at Mu-type opioid receptor; in assay [1]) were 0.0055 µM and 1.35 µM, respectively.
Taken in the same sequence, the figures for `NC(=O)[C@H](CNC(=O)C[C@H](Cc1ccccc1)NC(=O)[C@@H]1CCCN1C(=O)[C@@H](N)Cc1ccc(O)cc1)Cc1ccccc1` were 0.0033 µM and 0.463 µM.
Turning to `NC(=O)C[C@@H]1Cc2ccccc2CN1C(=O)C[C@H](Cc1ccccc1)NC(=O)[C@@H]1CCCN1C(=O)[C@@H](N)Cc1ccc(O)cc1`, the Ki stood at 0.02 µM on Mu-type opioid receptor and 1.65 µM in assay [1].
Taken in the same sequence, the figures for `NC(=O)C[C@H](Cc1ccccc1)NC(=O)C[C@H](Cc1ccccc1)NC(=O)[C@@H]1CCCN1C(=O)[C@@H](N)Cc1ccc(O)cc1` were 0.019 µM and 2.8 µM.
`NC(=O)[C@H](CNC(=O)[C@H](CNC(=O)[C@@H]1CCCN1C(=O)[C@@H](N)Cc1ccc(O)cc1)Cc1ccccc1)Cc1ccccc1`: the inhibition constant Ki at Mu-type opioid receptor was 0.101 µM; in assay [1] it was 0.922 µM.
